One test deals with S. aureus 3126. Description: microbe, parasite or virus in culture. In kind it is cell-based, Staphylococcus aureus. To be noted: pH 7.4 (II); 10 mM sodium phosphate buffer, 10% LB; 37° C, 24 h; mean of 3 experiments. From the text: (§1) The method for peptide synthesis has been described in detail previously. E. coli ATCC 25922 (LB media), P. aeruginosa ATCC 15692 (NB+0.5% NaCl media), Listeria monocytogenes ATCC 3710 (LB media), Staphylococcus epidermidis ATCC 12228 (LB media), and S. aureus ATCC 29213 (TSB media) were obtained from the American Type Culture Collection (Manassas, VA, USA). Bacillus subtilis KCTC 1998 (LB media), Salmonella typhimurium KCTC 1926 (NB media), and Proteus vulgaris KCTC 2433 (NB media) were obtained from the Korean Collection for Type Cultures (Jeollabuk-do, Korea). E. coli CCARM 1238 was received from the Culture Collection of Antibiotic Resistant Microbes at Seoul Women’s University, Korea. Drug-resistant P. aeruginosa 3543, 3904, 3547, and 4007 and S. aureus 3126, 0027, 5157, 1635, 4761, 5159, 3359, 2122, 1630, 1870, 3511, 5156, and 3518 were resistant strains isolated from patients with otitis media in a Chonnam National University’s hospital.
(§2) The antibacterial activities of AMPs (melittin, clavaspirin, and its analogs) and conventional antibiotic drugs (erythromycin, gentamicin, ampicillin, and piperacidin) were determined using microdilution assays. Bacterial cells were cultured at 37° C in appropriate culture media at pH 5.5 or pH 7.4 until collection during the mid-log phase and suspended in 10 mM sodium phosphate buffer (pH 5.5 or pH 7.4) supplemented with 10% culture medium. Thereafter, 2× serial dilutions of each peptide (0.25–128 μM) or antibiotic (0.25–256 μM) were added to sterile 96-well plates, and aliquots of cell suspension (5 × 10^5 colony forming units (cfu)/mL) were seeded into each well. The samples were then incubated at 37° C for 24 h. At the end of the incubation, the minimum inhibitory concentrations (MICs) of the peptides were determined using a VERSA Max microplate reader (Molecular Devices Co., Sunnyvale, CA, USA) at a wavelength of 600 nm. […] MIC values were calculated as the mean of 3 independent experiments conducted in triplicate.

The test system of a further test is S. aureus 4761. The test is described as follows: microbe, parasite or virus in culture. In kind it is cell-based, Staphylococcus aureus. To be noted: pH 7.4 (II); 10 mM sodium phosphate buffer, 10% LB; 37° C, 24 h; mean of 3 experiments.
Text: as §1, §2

A further test concerns S. aureus 0027. The test is described as follows: microbe, parasite or virus in culture. In kind it is cell-based, Staphylococcus aureus. To be noted: pH 7.4 (II); 10 mM sodium phosphate buffer, 10% LB; 37° C, 24 h; mean of 3 experiments.
Text: as §1, §2

Another test deals with S. aureus 3518. Description: microbe, parasite or virus in culture. In kind it is cell-based, Staphylococcus aureus. To be noted: pH 7.4 (II); 10 mM sodium phosphate buffer, 10% LB; 37° C, 24 h; mean of 3 experiments.
Text: as §1, §2

A further test deals with S. aureus 1630. Description: microbe, parasite or virus in culture. In kind it is cell-based, Staphylococcus aureus. To be noted: pH 7.4 (II); 10 mM sodium phosphate buffer, 10% LB; 37° C, 24 h; mean of 3 experiments.
Text: as §1, §2

Another test has as its system S. aureus 1870. The test is described as follows: microbe, parasite or virus in culture. It is filed as cell-based, Staphylococcus aureus. To be noted: pH 7.4 (II); 10 mM sodium phosphate buffer, 10% LB; 37° C, 24 h; mean of 3 experiments.
Text: as §1, §2

A further test concerns S. aureus 5157. The test is described as follows: microbe, parasite or virus in culture. To be noted: pH 7.4 (II); 10 mM sodium phosphate buffer, 10% LB; 37° C, 24 h; mean of 3 experiments. It is filed as cell-based, Staphylococcus aureus.
Text: as §1, §2

A further test deals with S. aureus 1635. Description: microbe, parasite or virus in culture. It is filed as cell-based, Staphylococcus aureus. To be noted: pH 7.4 (II); 10 mM sodium phosphate buffer, 10% LB; 37° C, 24 h; mean of 3 experiments.
Text: as §1, §2

Another test relates to S. aureus 3359. Description: microbe, parasite or virus in culture. In kind it is cell-based, Staphylococcus aureus. To be noted: pH 7.4 (II); 10 mM sodium phosphate buffer, 10% LB; 37° C, 24 h; mean of 3 experiments.
Text: as §1, §2

A further test relates to S. aureus 3511. Description: microbe, parasite or virus in culture. In kind it is cell-based, Staphylococcus aureus. To be noted: pH 7.4 (II); 10 mM sodium phosphate buffer, 10% LB; 37° C, 24 h; mean of 3 experiments.
Text: as §1, §2

The next test deals with S. aureus 2122. Description: microbe, parasite or virus in culture. In kind it is cell-based, Staphylococcus aureus. To be noted: pH 7.4 (II); 10 mM sodium phosphate buffer, 10% LB; 37° C, 24 h; mean of 3 experiments.
Text: as §1, §2

A further test deals with S. aureus 5159. The test is described as follows: microbe, parasite or virus in culture. It is filed as cell-based, Staphylococcus aureus. To be noted: pH 7.4 (II); 10 mM sodium phosphate buffer, 10% LB; 37° C, 24 h; mean of 3 experiments.
Text: as §1, §2

The next test concerns S. aureus 5156. Description: microbe, parasite or virus in culture. In kind it is cell-based, Staphylococcus aureus. To be noted: pH 7.4 (II); 10 mM sodium phosphate buffer, 10% LB; 37° C, 24 h; mean of 3 experiments.
Text: as §1, §2

Another test deals with E. coli LPS. The test is described as follows: Peptide-LPS binding affinity assay (dansyl polymyxin B). To be noted: LPS 9 µg, 2.5 μM dansyl polymyxin B, 5 mM HEPES buffer pH 7.4, peptide 0.4 to 4 μM. On the procedure: Lipoteichoic acid (LTA) and lipopolysaccharide (LPS) binding affinity assays were performed using a Perkin-Elmer LS55 fluorometer (Waltham, MA, USA). S. aureus LTA and E. coli LPS (9 µg) were incubated with 2.5 μM dansyl-polymyxin B in 5 mM HEPES buffer for 5–10 min at pH 7.4. The CSP-4 peptide was added in 0.4 μM increments from 0.4 to 4 μM. The increase in fluorescence intensity was assessed using a spectrofluorometer at an excitation wavelength of 340 nm and an emission wavelength of 482 nm (Perkin-Elmer LS55).

In a further test the test system is P. aeruginosa 3904. Description: microbe, parasite or virus in culture. In kind it is cell-based, Pseudomonas aeruginosa. To be noted: pH 7.4 (II); 10 mM sodium phosphate buffer, 10% LB; 37° C, 24 h; mean of 3 experiments. A digest of the protocol:
(§3)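 Grow strains at 37° C in medium at pH 5.5 or 7.4 to mid-log; resuspend in 10 mM sodium phosphate buffer, matching pH, with 10% medium. Add 5 × 10^5 cfu/mL to twofold dilutions (peptides 0.25–128 μM, antibiotics 0.25–256 μM). Incubate 24 h, 37° C; read A600.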

For a further test, the system named is P. aeruginosa 3543. Description: microbe, parasite or virus in culture. It is filed as cell-based, Pseudomonas aeruginosa. To be noted: pH 7.4 (II); 10 mM sodium phosphate buffer, 10% LB; 37° C, 24 h; mean of 3 experiments. In outline:
as §3

The next test concerns P. aeruginosa 4007. Description: microbe, parasite or virus in culture. It is filed as cell-based, Pseudomonas aeruginosa. To be noted: pH 7.4 (II); 10 mM sodium phosphate buffer, 10% LB; 37° C, 24 h; mean of 3 experiments. A digest of the protocol:
as §3

Another test deals with P. aeruginosa 3547. Description: microbe, parasite or virus in culture. In kind it is cell-based, Pseudomonas aeruginosa. To be noted: pH 7.4 (II); 10 mM sodium phosphate buffer, 10% LB; 37° C, 24 h; mean of 3 experiments. A digest of the protocol: as §3

Ends that are not written are not given here.

Results on one substance are retold here after PMC5884652, “New antimicrobial peptide kills drug-resistant pathogens without detectable resistance” (Oncotarget, 2018).

Regarding FLRFIGSVKHGKGHLVHHIGVAL-NH2 [CSP-4], the MIC in the test with S. aureus 3126, against S. aureus 4761, against S. aureus 0027, with S. aureus 3518, against S. aureus 1630 and in the test on S. aureus 1870 was 8 µM each time. For the same substance, the MIC in the test on S. aureus 5157, against S. aureus 1635, against S. aureus 3359, with S. aureus 3511, with S. aureus 2122 and in the test with S. aureus 5159 was 8 µM throughout. Further, the MIC is on record as 8 µM against S. aureus 5156; 2 µM in the test on P. aeruginosa 3904; 4 µM against P. aeruginosa 3543; 2 µM with P. aeruginosa 4007; 4 µM with P. aeruginosa 3547. Further, the “Binding to LPS (fluorescence of dansyl polymyxin B)” value in the test on E. coli LPS is on record as “dose-dependent increase in fluorescence intensity”.
